In US10238642B2, “Methods for treating neurogenic orthostatic hypotension” (Theravance Biopharma R&D IP, LLC, priority 2016, dated 2019):

Legend:
[1] = Rat oral pharmacokinetics, one-compartment model; format: in vivo; details: estimate (% CV)
Protocol: Adult male Sprague Dawley rats (Charles River) were housed under controlled laboratory conditions (temperature at 21±1° C.) on a 12:12 hour light-dark cycle. Animals were given free access to food and water upon arrival to the facility and animals were acclimatized to their holding room for at least 48 hours. Animals were fasted but allowed free access to water for 15-18 hours prior to dosing.
Rats (n=6/timepoint/dose level) received a single oral dose of 4-[2-(2,4,6-trifluorophenoxymethyl)phenyl]piperidine (0.3, 1, 5, 10, 30, and 60 mg/kg) and were euthanized by decapitation at specified time points (0.5, 2, 4, 6, and 8 hr for 5 mg/kg dose level; 2 hr for 0.3, 1, 10, 30, and 60 mg/kg dose levels) post-administration. Spinal cords were dissected for ex vivo transporter occupancy and PK assessments from the same animals. The spinal cord was harvested by hydraulic extrusion using phosphate-buffered saline, and the lumbar segment dissected and frozen on dry ice. The remaining spinal cord segments were collected and homogenized in water (25% w/w) for PK analysis. All samples were stored at −80° C. until analysis.
A kinetic radioligand binding assay was used to determine NET and SERT occupancy in rat spinal cord, as described previously in Bourdet et al., J. Pharm. Exp. Ther. (2012) 341:137-145. PK/PD parameters were estimated by a compartmental modeling approach (WinNonlin Version 5.0.1, Pharsight Corporation). One- and two-compartment PK models with first-order absorption and elimination were evaluated. The one-compartment model was selected. The pharmacodynamics model was an effect compartment Emax model linked directly to the central PK compartment (WinNonlin PK Model 3, PD Model 101). Selection of models was based upon best fit in terms of visual inspection, Akaike Information Criteria, and weighted residual sum of squares using the Gauss-Newton minimization method.

[2] = biological target: T1, rat native NET (Rattus norvegicus, UniProt Q9WTR4); test: [3H]-nisoxetine radioligand binding, rat cortical membranes; details: mean (95% confidence intervals), read-out: Transporter Binding: pKi, NET (converted)
T1 construct: other: Rat cortical membranes; mean (95% confidence intervals)
Text: The in vitro pharmacology of 4-[2-(2,4,6-trifluorophenoxymethyl)phenyl]-piperidine at human recombinant and rat native monoamine transporters was characterized as described in Smith et al., Inter. J. Neuropsychopharmcol. (2015) 1-11; and Tsuruda et al., J. Pharmacol. Toxicol. Meth. (2010) 61:192-204. See also, e.g., U.S. Pat. No. 8,304,432 B2 and U.S. Pat. No. 8,304,433 B2. Radioligands were sourced commercially (Perkin Elmer LifeSciences or GE Healthcare Life Sciences).
Briefly, membranes prepared from HEK293 (Human Embryonic Kidney 293) or CHO-K1 (Chinese Hamster Ovary-K1) cells stably transfected with human recombinant SERT (HEK293-hSERT), NET (HEK293-hNET), or DAT (CHO-KT-hDAT) were incubated for 1 hr at 22° C. in the absence, or presence, of 4-[2-(2,4,6-trifluorophenoxymethyl)phenyl]piperidine and [^3H]-citalopram (1.0 nM) for SERT, [^3H]-nisoxetine (2.0 nM) for NET, and [^3H]-WIN35428 (3.0 nM) for DAT in 50 mM Tris-HCl, 120 mM NaCl, 5 mM KCl, 0.025% BSA, 100 μM ascorbic acid, pH 7.4. Rat cortical membrane preparations were incubated with [^3H]-citalopram (2.0 nM) for SERT or [3H]-nisoxetine (4.0 nM) for NET for 1 hr at 22° C. […] Binding and uptake assays were terminated by rapid filtration and radioactivity determined by liquid scintillation spectroscopy.

T1 sequence (Q9WTR4 1-597): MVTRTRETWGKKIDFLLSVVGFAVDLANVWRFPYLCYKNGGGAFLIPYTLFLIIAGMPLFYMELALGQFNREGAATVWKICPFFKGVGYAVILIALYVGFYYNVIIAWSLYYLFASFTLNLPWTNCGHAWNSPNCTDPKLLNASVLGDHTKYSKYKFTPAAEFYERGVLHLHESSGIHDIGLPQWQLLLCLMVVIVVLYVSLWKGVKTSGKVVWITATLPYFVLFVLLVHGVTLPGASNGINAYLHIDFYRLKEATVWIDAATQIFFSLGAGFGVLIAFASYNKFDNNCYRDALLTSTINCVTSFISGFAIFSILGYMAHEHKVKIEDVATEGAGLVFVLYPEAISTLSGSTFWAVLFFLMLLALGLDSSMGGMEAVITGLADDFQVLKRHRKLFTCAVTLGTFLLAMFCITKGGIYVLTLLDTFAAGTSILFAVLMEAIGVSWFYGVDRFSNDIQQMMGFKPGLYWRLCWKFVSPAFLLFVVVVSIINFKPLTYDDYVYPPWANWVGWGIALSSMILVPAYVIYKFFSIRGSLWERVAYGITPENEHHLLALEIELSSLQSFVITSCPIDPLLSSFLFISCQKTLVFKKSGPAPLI

Fc1cc(F)c(OCc2ccccc2C2CCNCC2)c(F)c1 [4-[2-(2,4,6-trifluorophenoxymethyl)phenyl]piperidine]
V/F (volume of the central compartment divided by oral bioavailability) [1]: 54.8 (66) L/kg | k01 (first-order absorption rate constant) [1]: 0.777 (108) hr^−1 | k10 (elimination rate constant from the central compartment) [1]: 0.319 (81) hr^−1 | Ki [2]: 2 nM
